One may read the ED50 as the midpoint of the dose-response relation. Low values mean an effect at a small dose, high ones a need for a large dose. One may read the Ki as a dissociation constant, usually derived from enzyme kinetics or from competition with a known ligand.

Here are results for 16 compounds from ChEMBL document CHEMBL1132788, “Analogues and derivatives of ciproxifan, a novel prototype for generating potent histamine H3-receptor antagonists” (Bioorg Med Chem Lett, 2000).

Structures are written as SMILES. Where only a bound is given, the exact number is not on record here.

Test [1] has as its target Histamine H3 receptor (Mus musculus) (UniProt P58406). Put plainly: In vivo Histamine H3 receptor antagonism, dose required to increase in N-t-methylhistamine levels in Swiss mice brains 90 min after p.o. administration. It counts as functional, organism-based. As to conditions: Brain.
The next test deals with Histamine H3 receptor (Rattus norvegicus, UniProt Q9QYN8). Put plainly: In vitro inhibitory activity against Histamine H3 receptor for K+ evoked depolarization-induced release of [3H]histamine from synaptosomes of rat cerebral cortex. The test is classed as subcellular, Brain.
Sequence of Histamine H3 receptor (Q9QYN8 whole entry): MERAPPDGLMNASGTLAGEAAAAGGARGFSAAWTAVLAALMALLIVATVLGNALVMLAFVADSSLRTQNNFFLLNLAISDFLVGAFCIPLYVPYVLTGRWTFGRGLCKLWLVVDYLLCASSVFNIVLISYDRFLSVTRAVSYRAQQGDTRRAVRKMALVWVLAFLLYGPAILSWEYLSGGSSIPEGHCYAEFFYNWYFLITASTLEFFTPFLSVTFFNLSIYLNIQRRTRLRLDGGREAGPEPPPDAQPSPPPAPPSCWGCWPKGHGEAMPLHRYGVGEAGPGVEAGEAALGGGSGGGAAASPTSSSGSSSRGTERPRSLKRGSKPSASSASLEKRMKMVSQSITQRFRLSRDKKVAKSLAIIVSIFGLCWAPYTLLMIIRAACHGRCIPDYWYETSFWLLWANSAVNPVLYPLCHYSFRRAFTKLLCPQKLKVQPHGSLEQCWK

Sequence of Histamine H3 receptor (Mus musculus) (P58406 whole entry): as the sequence (Q9QYN8 whole entry) above, with T15A, A286T, A290G, R387H, I389V counted along it

As to `CC(C)(C)CCC#C[C@@H]1C[C@H]1c1c[nH]cn1`, the median effective dose (ED50) in test [1] came to 0.12 mg/kg.
Same read-out and setting: for `O=C(c1ccc(OCCCc2c[nH]cn2)cc1)C1CC1` the value was 0.14 mg/kg.
On the same count and under the same terms, the result for `c1nc(CCCOc2ccc(CC3CC3)cc2)c[nH]1` reads more than 10 mg/kg; that for `O=C(CCCO)c1ccc(OCCCc2c[nH]cn2)cc1`, more than 10 mg/kg; that for `O=C(CCCN1CCCC1)c1ccc(OCCCc2c[nH]cn2)cc1`, more than 10 mg/kg.
`ClCC/C=C/c1ccc(OCCCc2c[nH]cn2)cc1` yielded a median effective dose (ED50) in test [1] of 0.72 mg/kg.
The compound `O=C(c1ccc(OCCCCc2c[nH]cn2)cc1)C1CC1` showed a 50% effective dose (ED50) in test [1] of more than 10 mg/kg.
`CCCCc1ccc(OCCCc2cnc[nH]2)cc1`: the Ki at Histamine H3 receptor was determined as 60 nM.
Consider `OC(c1ccc(OCCCc2c[nH]cn2)cc1)C1CC1` (stereo not given), for which it took a dose of 0.18 mg/kg to reach the 50% effect level in test [1] (ED50). For the same compound, the affinity on Histamine H3 receptor corresponds to a Ki of 0.58 nM.
On Histamine H3 receptor, `O=C(c1ccc(OCCCCc2cnc[nH]2)cc1)C1CC1` showed a Ki of 113 nM.
The compound `CCCCc1ccc(OCCCc2c[nH]cn2)cc1` yielded an ED50 in test [1] of 0.96 mg/kg.
On the same count and under the same terms, the result for `O/N=C(/c1ccc(OCCCc2c[nH]cn2)cc1)C1CC1` reads 0.21 mg/kg.
At Histamine H3 receptor, `O=C(CCCO)c1ccc(OCCCc2cnc[nH]2)cc1` had a Ki of 30 nM.
Consider `OCCCC1(c2ccc(OCCCc3c[nH]cn3)cc2)OCCO1`, for which the median effective dose (ED50) in test [1] was more than 10 mg/kg. Affinity at Histamine H3 receptor was put at a Ki of 40 nM.
For `O=C(c1ccc(OCc2c[nH]cn2)cc1)C1CC1` the same measures were 2.8 mg/kg and more than 500 nM.
For `O=C(c1ccc(OCCc2c[nH]cn2)cc1)C1CC1` the same measures were 0.21 mg/kg and 2.1 nM.
